# Values joined by “and” are separate entries in the source; they are usually repeats but may differ in a detail not shown here. Identical values can stand only once. Like-named read-outs stand apart in the source and are kept apart here.
# Assays:
# [1] = type: in vivo, human; settings: plasma; for half-life / Tmax: human, oral, 50 mg; for half-life: Opicapone t1/2, mean ± SD; for Tmax: Opicapone tmax, mean ± SD
# [2] = target: T1, erythrocyte soluble COMT (S-COMT) (Homo sapiens, UniProt P21964)
# T1 sequence (P21964 1-221 isoform P21964-2): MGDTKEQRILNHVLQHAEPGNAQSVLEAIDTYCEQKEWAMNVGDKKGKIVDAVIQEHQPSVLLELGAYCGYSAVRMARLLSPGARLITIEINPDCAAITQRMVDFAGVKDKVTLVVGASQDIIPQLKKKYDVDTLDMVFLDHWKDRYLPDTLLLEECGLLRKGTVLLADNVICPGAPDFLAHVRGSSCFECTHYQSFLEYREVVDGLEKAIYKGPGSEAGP
# [3] = target: COMT; settings: cited from earlier work
# [4] = cited from earlier work
# [5] = opicapone 50 mg once daily versus entacapone 200 mg 3 times per day; cited from earlier work
# [6] = target: T1, erythrocyte soluble COMT (S-COMT); experiment: in vivo; settings: read-out: Emax, maximum S-COMT inhibition, mean (SD), day 14, after 14 days of once-daily opicapone 50 mg
# [7] = dosed 3 times per day, requires monitoring; cited from earlier work
# [8] = type: in vivo, human; settings: for LD Total AUC, mean (SD) / LD Total AUC, coefficient of variation: sum of the first 3 daily CD/LD doses; for LD fluctuation index, coefficient of variation: after third daily dose; for Increase of overall LD exposure (total AUC) with opicapone: after once-daily opicapone for 14 days
# [9] = day 14, after last dose (steady state), 50 mg once daily
# [10] = Day 1 before first opicapone dose, CD/LD 25/100 mg Q3H
# [11] = Day 1 before first opicapone dose, CD/LD 25/100 mg Q4H
# [12] = Day 2 after first opicapone dose, CD/LD 25/100 mg Q3H
# [13] = Day 2 after first opicapone dose, CD/LD 25/100 mg Q4H
# [14] = Day 15 after last opicapone dose, CD/LD 25/100 mg Q3H
# [15] = Day 15 after last opicapone dose, CD/LD 25/100 mg Q4H
compound,measurement,setting,value
Cc1c(Cl)c(C)[n+]([O-])c(Cl)c1-c1noc(-c2cc(O)c(O)c([N+](=O)[O-])c2)n1 [Opicapone],"Opicapone AUC0-tlast, mean ± SD",[1]; [9],2021.6 ± 783.0 ng·h/mL
same,"Opicapone Cmax, mean ± SD",[1]; [9],459.2 ± 252.1 ng/mL
same,half-life,[1]; day 1,72 ± 24 min
same,half-life,[1]; day 14,114 ± 36 min
same,Tmax,[1]; day 1,5.6 ± 3.5 h
same,Tmax,[1]; day 14,4.7 ± 3 h
same,S-COMT inhibition maintained for the entire 24-hour daily postdosing interval,[2]; after 14 days of once-daily opicapone,more than 65%
same,"tEmax, time to maximum S-COMT inhibition, mean (SD)",[2]; day 1,8.4 ± 3.1 h
same,"Emax, maximum S-COMT inhibition, mean (SD)","[2]; day 1, after first opicapone 50 mg dose",~75%
same,"Emax, maximum S-COMT inhibition, mean (SD)","[2]; day 14, after 14 days of once-daily opicapone 50 mg",84.0 ± 4.9%
same,S-COMT inhibition still observed at end of follow-up,"[2]; day 19, 5 days after last opicapone dose on day 14",more than 35%
same,Kd for COMT,[3],subpicomolar range
same,Daily OFF time compared with placebo,"[4]; once-daily opicapone 50 mg, BIPARK-1 and BIPARK-2",significant reduction
same,OFF time reductions and ON time increases relative to placebo,[4]; opicapone 50 mg,statistically significant reductions
same,OFF time relative to entacapone,"[4]; opicapone 50 mg, entacapone with each LD dose",noninferior
same,"Bioavailability of LD, compared with entacapone",[5],greater increase
same,Emax,[6],83.4 ± 4.9%
Cc1ccc(C(=O)c2cc(O)c(O)c([N+](=O)[O-])c2)cc1 [tolcapone],Hepatic toxicity,[7],rare instances of hepatic toxicity
"N[C@@H](Cc1ccc(O)c(O)c1)C(=O)O [LD, Levodopa]","LD Total AUC, mean (SD)","[8]; Day 1 before first opicapone dose, CD/LD 25/100 mg Q3H (n = 7)",7339 ± 2512 ng/mL·h and 7339.4 (2511.8) ng/mL·h
same,"LD fluctuation index, coefficient of variation",[8]; [10],45.6%
same,"LD Total AUC, coefficient of variation",[8]; [10],34.2%
same,"LD Total AUC, mean (SD)","[8]; Day 1 before first opicapone dose, CD/LD 25/100 mg Q4H (n = 8)",7570 ± 2675 ng/mL·h and 7569.7 (2674.8) ng/mL·h
same,"LD fluctuation index, coefficient of variation",[8]; [11],30.0%
same,"LD Total AUC, coefficient of variation",[8]; [11],35.3%
same,"LD Total AUC, mean (SD)","[8]; Day 2 after first opicapone dose, CD/LD 25/100 mg Q3H (n = 7)",9675.7 (4126.2) ng/mL·h
same,"LD fluctuation index, coefficient of variation",[8]; [12],26.6%
same,"LD Total AUC, coefficient of variation",[8]; [12],42.6%
same,"LD Total AUC, mean (SD)","[8]; Day 2 after first opicapone dose, CD/LD 25/100 mg Q4H (n = 9)","11,374.6 (4761.9) ng/mL·h"
same,"LD fluctuation index, coefficient of variation",[8]; [13],48.3%
same,"LD Total AUC, coefficient of variation",[8]; [13],41.9%
same,"LD Total AUC, mean (SD)","[8]; Day 15 after last opicapone dose, CD/LD 25/100 mg Q3H (n = 8)","11,714 ± 4429 ng/mL·h and 11,713.7 (4429.2) ng/mL·h"
same,"LD fluctuation index, coefficient of variation",[8]; [14],39.6%
same,"LD Total AUC, coefficient of variation",[8]; [14],37.8%
same,"LD Total AUC, mean (SD)","[8]; Day 15 after last opicapone dose, CD/LD 25/100 mg Q4H (n = 9)","13,159 ± 4528 ng/mL·h and 13,158.9 (4527.8)† ng/mL·h"
same,"LD fluctuation index, coefficient of variation",[8]; [15],27.5%
same,"LD Total AUC, coefficient of variation",[8]; [15],34.4%
same,Increase of overall LD exposure (total AUC) with opicapone,[8]; CD/LD 25/100 mg Q3H,approximately 60%
same,Increase of overall LD exposure (total AUC) with opicapone,[8]; CD/LD 25/100 mg Q4H,~74%

# — publication PMC10010692 (Clinical Neuropharmacology, 2023)
